From patent US8030043B2, “β-galactoside-α2,3-sialyltransferase, a gene encoding thereof, and a method for producing thereof” (Japan Tobacco Inc., priority 2005, dated 2011)

What was measured:
[1] = test system: α2,3-sialyltransferase derived from strain JT-ISH-467; experiment: Sialic acid transfer to monosaccharides and disaccharides by partially purified α2,3-sialyltransferase (CMP-14C-NeuAc donor, radioactivity of column eluate); type: biochemical, Photobacterium phosphoreum; conditions: 25° C., 4 hours; acceptor 10 μmol (200 mM); CMP-14C-NeuAc 400 nmol; sialyltransferase 0.13 mU; NaCl 500 mM
Protocol: A cell homogenate prepared from the strain JT-ISH-467 was partially purified by ion exchange chromatography, hydroxyapatite chromatography, and gel filtration chromatography. The thus partially purified α2,3-sialyltransferase was used in the following experiment in order to confirm the transfer of sialic acid to various monosaccharides and disaccharides.
The enzymatic reaction was carried out at 25° C. for 4 hours in a reaction solution (24 μl) prepared to contain CMP-^14C-NeuAc as a glycosyl donor substrate (400 nmol (15600 cpm), final concentration in the reaction solution: 16.6 mM), any of various glycosyl acceptor substrates (10 μmol, final concentration in the reaction solution: 200 mM), sialyltransferase (0.13 mU) and NaCl (final concentration in the reaction solution: 500 mM). The monosaccharides and disaccharides used as glycosyl acceptor substrates were the following 6 substances: methyl-α-D-galactopyranoside (Gal-α-OMe), methyl-β-D-galactopyranoside (Gal-β-OMe), N-acetylgalactosamine (GalNAc), lactose (Gal-β1,4-Glc), N-acetyllactosamine (Gal-β1,4-GlcNAc), and methyl-β-D-galactopyranosyl-β-1,3-N-acetylglucosaminide (Gal-β1,3-GlcNAc-β-OMe).
(§1) After completion of the enzymatic reaction, 1.98 ml of 5 mM phosphate buffer (pH 6.8) was added to the reaction solution to stop the enzymatic reaction. Then, the enzymatic reaction solution was diluted with 5 mM phosphate buffer (pH 6.8) and applied in a volume of 2 ml to a AG1-×2 Resin (PO4^3− form, 0.2×2 cm) column. This column was prepared as follows: AG1-×2 Resin (OH^− form, BIO-RAD) was suspended in 1 M phosphate buffer (pH 6.8), and after 30 minutes, the resin was washed with distilled water and then suspended in distilled water. The eluate (0 to 2 ml) from this column was measured for its radioactivity. The eluate from this column contains the unreacted glycosyl acceptor substrate and the ^14C-NeuAc (N-acetylneuraminic acid)-bound reaction product which was generated by the reaction, but unreacted CMP-^14C-NeuAc is still retained on the column. Thus, the radioactivity of ^14C from each sialic acid-containing sugar chain generated as a result of the enzymatic reaction arises exclusively from the reaction product, so that the radioactivity of this fraction can be used to calculate the enzyme activity.
(§2) In the manner described above, the radioactivity of NeuAc transferred to each glycosyl acceptor substrate was measured to calculate the amount of transferred sialic acid.

[2] = test system: ISH467-N2C0 recombinant β-galactoside-α2,3-sialyltransferase; experiment: Acceptor substrate specificity of recombinant β-galactoside-α2,3-sialyltransferase (mono-, di-, trisaccharides); type: biochemical, Photobacterium phosphoreum
Description: (§3) Cell homogenates prepared from E. coli cells introduced with the third clone of ISH467-N2C0, the first clone of ISH224-N1C0 and the first clone of FAJ-N1C0 were each purified by ion exchange chromatography and hydroxyapatite chromatography to give an electrophoretically single band. The thus purified β-galactoside-α2,3-sialyltransferases were used in the following experiment in order to examine the presence or absence of sialyltransferase activity toward various monosaccharides, disaccharides and trisaccharides.
(§4) A reaction solution (24 μl) was prepared to contain CMP-^14C-NeuAc-containing CMP-NeuAc as a glycosyl donor substrate ([…], final concentration in the reaction solution: […]), any of various glycosyl acceptor substrates dissolved in 20 mM cacodylate buffer (pH 5.0) (1 μmol, final concentration in the reaction solution: 42 mM), sialyltransferase (in an amount as indicated in the footnotes of the tables below) and NaCl (final concentration in the reaction solution: 500 mM), and reacted under conditions as indicated in the footnotes of the tables below. The monosaccharides used as glycosyl acceptor substrates were the following 10 types: methyl-α-D-galactopyranoside (Gal-α-OMe), methyl-(β-D-galactopyranoside (Gal-β-OMe), methyl-α-D-glucopyranoside (Glc-α-OMe), methyl-β-D-glucopyranoside (Glc-β-OMe), methyl-α-D-mannopyranoside (Man-α-OMe), methyl-β-D-mannopyranoside (Man-β-OMe), methyl-α-D-fucopyranoside (Fuc-α-OMe), methyl-β-D-fucopyranoside (Fuc-β-OMe), N-acetylgalactosamine (GalNAc), and N-acetylglucosamine ([…]). The disaccharides used were the following 5 types: lactose (Gal-β1,4-Glc), N-acetyllactosamine (Gal-β1,4-GlcNAc), methyl-β-D-galactopyranosyl-β1,3-N-acetylglucosaminide (Gal-β1,3-GlcNAc-β-OMe), methyl-α-D-galactopyranosyl-α1,3-galactopyranoside (Gal-α-1,3-Gal-α-OMe), and methyl-β-D-galactopyranosyl-β1,3-galactopyranoside (Gal-β1,3-Gal-β-OMe). The trisaccharide used was 2′-fucosyllactose (Fuc-α1,2-Galβ1,4-Glc). It should be noted that the final concentration was set to 8.4 mM for the sugar chains shown in Table 18, i.e., methyl-α-D-galactopyranosyl-α1,3-galactopyranoside (Gal-α1,3-Gal-α-OMe), methyl-β-D-galactopyranosyl-β1,3-galactopyranoside (Gal-β1,3-Gal-β-OMe) and 2′-fucosyllactose (Fuc-α1,2-Gal-β1,4-Glc).
as §1, with “a AG1−×2” for “a AG1-×2”, “follows: AG1-x 2” for “follows: AG1-×2”, “unreacted CMP-14C-NeuAc” for “unreacted CMP-^14C-NeuAc”
as §2

[3] = test system: ISH224-N1C0 recombinant β-galactoside-α2,3-sialyltransferase; experiment: as above; type: biochemical, Photobacterium sp.
Description: as §3, §4
as §1, with “a AG1−×2” for “a AG1-×2”, “follows: AG1-x 2” for “follows: AG1-×2”, “unreacted CMP-14C-NeuAc” for “unreacted CMP-^14C-NeuAc”
as §2

[4] = test system: FAJ-N1C0 recombinant β-galactoside-α2,3-sialyltransferase; experiment: Acceptor substrate specificity of recombinant β-galactoside-α2,3-sialyltransferase (mono-, disaccharides); type: biochemical, Vibrio sp.; set-up: FAJ-N1C0 Sialyltransferase activity Relative activity (%): tested at 42 mM; conditions: 20° C., 14 hours
Description: as §3, §4
as §1, with “a AG1−×2” for “a AG1-×2”, “follows: AG1-x 2” for “follows: AG1-×2”, “unreacted CMP-14C-NeuAc” for “unreacted CMP-^14C-NeuAc”
as §2

[5] = Table 16: 1 μmol acceptor, pH 5.0, about 2.5 mU enzyme, 20° C., 14 hours
[6] = Table 16: activity toward lactose set to 100, 20° C., 14 hours
[7] = Table 17: activity toward lactose set to 100, 30° C., 0.5 minutes or 2 minutes

Structure (SMILES): CO[C@H]1O[C@H](CO)[C@H](O)[C@H](O)[C@H]1O [Methylαgalactopyranoside, methyl-α-D-galactopyranoside]
- Amount of transferred sialic acid [1]: 60.0 nmol
- ISH467-N2C0 Sialyltransferase activity [2, 5]: 10.5 nmol/min
- ISH467-N2C0 Sialyltransferase activity Relative activity (%) [2, 6]: 134%
- ISH467-N2C0 Sialyltransferase activity ([2]; Table 17: 1 μmol acceptor, pH 5.0, 2.3 mU per reaction, 30° C., 0.5 minutes or 2 minutes): 10.38 nmol/min
- ISH467-N2C0 Sialyltransferase activity Relative activity (%) [2, 7]: 452%
- ISH224-N1C0 Sialyltransferase activity [3, 5]: 9.5 nmol/min
- ISH224-N1C0 Sialyltransferase activity Relative activity (%) [3, 6]: 113%
- ISH224-N1C0 Sialyltransferase activity ([3]; Table 17: 1 μmol acceptor, pH 5.0, 1.0 mU per reaction, 30° C., 0.5 minutes or 2 minutes): 8.49 nmol/min
- ISH224-N1C0 Sialyltransferase activity Relative activity (%) [3, 7]: 823%
- FAJ-N1C0 Sialyltransferase activity ([4]; Table 16: 1 μmol acceptor, pH 5.0, about 2.5 mU enzyme): 10.3 nmol/min
- FAJ-N1C0 Sialyltransferase activity Relative activity (%) ([4]; Table 16: activity toward lactose set to 100): 135%
